Consider four molecules from ChEMBL document CHEMBL4680206, “Novel pyrrolidinone derivative lacks claimed histamine H receptor stimulation in receptor binding and functional studies” (Eur J Med Chem, 2020).

Molecules are shown by their SMILES. Active and inactive are the calls of the source. The rule behind the calls is not given here.

In assay [1] the target is T1, Histamine H3 receptor (Homo sapiens, UniProt Q9Y5N1). Briefly: Displacement of bodilisant from recombinant human histamine H3 receptor stably transfected in HEK-293T cells membrane at 1 to 10 uM incubated for 60 mins by fluorescence-polarization assay. Format: cell membranes. As to conditions: Cell membrane, dose 1-10 µM.
T1 sequence (Q9Y5N1 whole entry): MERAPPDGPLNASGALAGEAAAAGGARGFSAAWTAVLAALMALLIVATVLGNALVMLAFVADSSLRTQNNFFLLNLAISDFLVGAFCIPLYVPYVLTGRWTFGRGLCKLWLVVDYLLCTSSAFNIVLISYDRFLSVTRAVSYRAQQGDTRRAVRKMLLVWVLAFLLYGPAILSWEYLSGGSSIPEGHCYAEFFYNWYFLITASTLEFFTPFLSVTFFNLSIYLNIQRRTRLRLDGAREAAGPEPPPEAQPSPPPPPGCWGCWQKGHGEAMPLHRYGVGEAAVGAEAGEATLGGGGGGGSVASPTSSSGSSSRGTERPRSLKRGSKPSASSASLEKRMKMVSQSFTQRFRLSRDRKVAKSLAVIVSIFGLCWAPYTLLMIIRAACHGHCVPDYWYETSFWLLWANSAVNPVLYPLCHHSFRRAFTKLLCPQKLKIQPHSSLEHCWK
Assay [2] deals with T1, Histamine H3 receptor. Briefly: Agonist activity at human H3 receptor expressed in CHO cells assessed as […] by measuring reduction in forskolin level incubated for 4 hrs by CRE/MRE-luciferase reporter gene assay. Format: functional, cell-based.
Assay [3] has as its target T1, Histamine H3 receptor. Briefly: Displacement of [3H]Nalpha-methylhistamine from recombinant human histamine H3 receptor stably transfected in HEK-293T cells membrane incubated for 90 mins by scintillation counting method. Format: cell membranes, Cell membrane. A general note: Loss of bound radioactivity is the signal in a displacement assay; it reports binding, not function.

The target in assay [4] is T1, Histamine H3 receptor. Briefly: Antagonist activity at human H3 receptor expressed in HEK293 cells assessed as reversion of (R)alpha-MeHA induced activity preincubated for 30 mins followed by [35S]-GTPgammaS addition and measured after 30 mins by liquid scintillation counting method. The conditions noted are these: filed as antagonist, time 60.0 min. Type of assay: functional, cell-based. On the technique in general: Binding of GTPγS marks nucleotide exchange on a G protein.

Assay [5] addresses T1, Histamine H3 receptor. Briefly: Agonist activity at human H3 receptor expressed in HEK293 cells preincubated for 30 mins followed by [35S]-GTPgammaS addition and measured after 30 mins by liquid scintillation counting method. Format: functional, cell-based. As to conditions: time 60.0 min.
Assay [6] concerns the target T1, Histamine H3 receptor. Briefly: Antagonist activity at human H3 receptor expressed in CHO cells assessed as decrease in cAMP accumulation by measuring increase in forskolin level incubated for 4 hrs in presence of histamine by CRE/MRE-luciferase reporter gene assay. Format: functional, cell-based. On the technique in general: Cyclic AMP is a second messenger, typically raised through Gs and lowered through Gi signalling.

For assay [7], the target named is T1, Histamine H3 receptor. Briefly: Partial agonist activity at human H3 receptor stably transfected in CHO-DUKX cells assessed as […] by measuring reduction in forskolin level by HitHunter-cAMP assay relative to histamine. Format: functional, cell-based.

As a reminder, the EC50 is the concentration needed to bring the measured effect to its halfway point. What is called Kd is a measure of binding affinity in units of concentration. As usually defined, the Ki is a dissociation constant, usually derived from enzyme kinetics or from competition with a known ligand.

For `Clc1ccc(CCCOCCCN2CCCCC2)cc1`, the result on Histamine H3 receptor [1] (filed as antagonist) was Active.

For the molecule `N=C(N)SCCc1cnc[nH]1` [IMETIT], on Histamine H3 receptor [2], the EC50 was found to be 2.9 nM.

Take `CC1=CC(C)=[N+]2C1=C(c1ccc(OCCCN3CCCCC3)cc1)c1c(C)cc(C)n1[B-]2(F)F`: the Kd on Histamine H3 receptor [3] came to 1.9 nM.

For the molecule `COc1cc(NC2(c3cccc(Cl)c3)C(=O)N(C(C)(C)C)C(=O)C2=Cc2ccccc2)cc(OC)c1OC` (centres undefined), the Ki on Histamine H3 receptor [3] worked out at 3200 nM. The outcome at Histamine H3 receptor [4] was Active. Further, the outcome on Histamine H3 receptor [5], at Histamine H3 receptor [6] and on Histamine H3 receptor [1] was inactive. In addition, the Ratio at Histamine H3 receptor [7] is 0.14.
